Source: article PMC9608663, “Anti-Alzheimer and Antioxidant Effects of Nelumbo nucifera L. Alkaloids, Nuciferine and Norcoclaurine in Alloxan-Induced Diabetic Albino Rats” (Pharmaceuticals, 2022)
Several values for one entry are separate records, joined by “and”; a condition that tells them apart may be missing. Equal values may be shown once.

Tests used:
[1] = test system: alloxan-induced diabetic rats; test: Blood glucose level in alloxan-induced diabetic rats; assay type: in vivo, albino rats (Sprague–Dawley); settings: 10 mg/kg b.w./day
Description: (§1) Forty-two (42) fully matured albino rats (200–250 g b.w.) of Sprague–Dawley types were purchased from National Institute of Health, Islamabad, Pakistan and kept under normal conditions for 15 days with 12-h dark/light rotation.
(§2) Alloxan monohydrate injection (100 mg/kg) was applied to experimental rats to induce diabetic conditions followed by giving 5% glucose water for 28 h in order to decrease the death probability in alloxan-induced rates from hyperglycemic shock. Over 300 mg/dL (3 mg/mL) blood glucose level (fasting blood plasma) was considered diabetic and a selective parameter for further study.
(§3) The rats were divided into seven groups (six rats in each group). Normal and diabetic control groups I and II, standard glibenclamide (10 mg/kg) group III, N. nucifera crude (100–200 mg/kg) groups IV and V and nuciferine and norcoclaurine (10 mg/kg) group VI and VII. Rats were anesthetized after 15 days and their organ sections were collected for different activities. Blood was collected from each rat and centrifuged at 4000 rpm for 10 min for antioxidant enzyme activities. The brain was homogenized in 100 mM Tris buffer (Sigma, Hamburg, Germany) (pH 8.0).

[2] = Body weight of alloxan-induced diabetic rats; assay type: in vivo, albino rats (Sprague–Dawley); settings: 10 mg/kg b.w./day
Description: as §1, §2, §3

[3] = test system: lipid peroxidation (TBARS); test: Lipid peroxidation assay (TBARS) in blood of diabetic rats; assay type: in vivo, albino rats (Sprague–Dawley); settings: 10 mg/kg, 15 days
Description: as §3
The lipid peroxidation activity in the blood sample was determined by slight modification in Sohal’s method. The reaction mixtures containing homogenate sample (0.2 mL) in 0.1 M phosphate buffer pH 7.4 (0.58 mL), ferric chloride (0.02 mL) and ascorbic acid (0.2 mL). The reaction mixture was incubated at […] for 1 h and stopped the reaction by adding 10% trichloro-acetic acid. The reaction mixture was continuously boiled, shaken for 20 min in a water bath and centrifuged for 10 min. The formation of TBARS was monitored at wavelength of 535 nm.

[4] = test system: superoxide dismutase (SOD); test: Superoxide dismutase assay (SOD) in blood of diabetic rats; assay type: in vivo, albino rats (Sprague–Dawley); settings: 10 mg/kg, 15 days
Description: as §3
Superoxide dismutase activity was determined by an assay mixture containing 0.3 mL blood sample, 1.2 mL sodium pyrophosphate, 0.1 mL phenazine methosulphate and 0.2 mL NADH. The reaction was stopped within a minute by adding 1 mL of glacial acetic acid and the concentration of product was monitored at 560 nm.

catalase (CAT) = test: Catalase assay (CAT) in blood of diabetic rats; assay type: in vivo, albino rats (Sprague–Dawley); settings: 10 mg/kg, 15 days
Description: as §3, with “8.0). Protein variation for several brain structures was measured followed by protein determination of striatum (0.3 mg/mL), hippocampus (0.6.0 mg/mL), cerebellum (0.7 mg/mL) and hypothalamus (0.4 mg/mL and cerebral cortex (0.8.0 mg/mL)).” for “8.0).”
Catalase activity was determined in blood samples by modified method of Chance and Maehly. The assay mixture comprised 0.1 mL blood serum, 2.5 mL phosphate buffer (pH 5) and 0.4 mL H2O2 while the absorbance was measured at 240 nm.

[5] = test system: glutathione peroxidase (GPx); test: Glutathione peroxidase assay (GSH-Px) in blood of diabetic rats; assay type: in vivo, albino rats (Sprague–Dawley); settings: 10 mg/kg, 15 days
Description: as §3
Glutathione peroxidase assay was carried out by reaction mixtures of 0.1 mL blood serum with 1.49 mL phosphate buffer (pH 7.4), 0.1 mL EDTA, 0.1 mL sodium azide, 0.1 mL NADPH, 0.05 mL GSH and 0.01 mL H2O2. The intensity of color loss of NADPH was measured at 340 nm.

[6] = test system: reduced glutathione (GSH); test: Reduced glutathione assay (GSH) in blood of diabetic rats; assay type: in vivo, albino rats (Sprague–Dawley); settings: 10 mg/kg, 15 days
Description: as §3
GSH assay was carried out by mixing the blood serum with substrate DTNB by the modified method of Biessels.

[7] = biological target: T1, acetylcholinesterase (AChE) (Rattus norvegicus, UniProt P37136); test: AChE activity in brain regions of diabetic rats; assay type: in vivo; settings: 10 mg/kg, 15 days; for AChE activity, Cerebellum: cerebellum homogenate; for AChE activity, Cerebral Cortex: cerebral cortex homogenate; for AChE activity, Hippocampus: hippocampus homogenate; for AChE activity, Hypothalamus: hypothalamus homogenate; for AChE activity, Striatum: striatum homogenate
T1 construct: from tissue; host or cells: rat brain homogenate (cerebral cortex, cerebellum, hypothalamus, striatum, hippocampus)
T1 sequence (P37136 32-614): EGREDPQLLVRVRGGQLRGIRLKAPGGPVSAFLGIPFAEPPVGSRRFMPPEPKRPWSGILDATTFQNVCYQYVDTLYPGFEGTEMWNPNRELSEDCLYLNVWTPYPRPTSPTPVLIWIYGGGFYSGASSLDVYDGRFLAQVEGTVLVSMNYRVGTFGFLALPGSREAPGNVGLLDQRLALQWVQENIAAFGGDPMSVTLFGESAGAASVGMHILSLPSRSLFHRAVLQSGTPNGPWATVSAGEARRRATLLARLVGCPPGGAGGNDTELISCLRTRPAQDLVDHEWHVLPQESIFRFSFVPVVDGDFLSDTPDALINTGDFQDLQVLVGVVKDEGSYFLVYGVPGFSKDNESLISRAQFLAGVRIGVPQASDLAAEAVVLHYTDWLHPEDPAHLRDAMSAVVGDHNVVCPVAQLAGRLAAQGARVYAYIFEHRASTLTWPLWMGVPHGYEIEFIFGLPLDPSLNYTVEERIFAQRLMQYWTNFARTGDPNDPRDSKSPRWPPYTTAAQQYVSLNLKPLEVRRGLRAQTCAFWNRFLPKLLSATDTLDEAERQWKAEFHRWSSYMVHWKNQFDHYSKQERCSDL
Description: as §3
(§4) In the brain (hippocampus, cerebellum, hypothalamus, striatum and cerebral cortex) and in the blood, AChE activity was measured using calorimetric method with slight modification. The sample of 0.1 mL brain homogenate as well as blood serum (containing 100 mM potassium phosphate buffer (pH 7.5), 1 mM DTNB and 0.8 mM […] (Sigma, Hamburg, Germany) were tested as AChE enzyme. The increase in enzyme activity was measured at 412 nm after the formation of the yellow-colored anion of 4, 4-ditheo-bis-nitrobenzoic acid and experiments were performed in triplicates.

[8] = test system: acetylcholinesterase (AChE); assay type: in vivo; settings: blood of diabetic rats, 10 mg/kg, 15 days; table title: AChE activity, µmol AcSCh/h/mg of protein
Description: as §3, §4

Structure (SMILES): COc1ccc(Cl)cc1C(=O)NCCc1ccc(S(=O)(=O)NC(=O)NC2CCCCC2)cc1 [glibenclamide, reference compound]
- Blood Glucose Level ([1]; day 0): 2.00 ± 1.85 mg/mL
- Blood Glucose Level ([1]; day 5): 1.54 ± 1.68 mg/mL
- Blood Glucose Level ([1]; day 10): 1.37 ± 1.20 mg/mL
- Blood Glucose Level ([1]; day 15, 10 mg/kg/day): 0.94 ± 1.20 mg/mL
- Blood Glucose Level ([1]; day 15, listed as glibencamide, 10 mg/kg/day): 0.94 ± 1.20 mg/mL
- Variations in Body Weight ([2]; day 0): 180.11 ± 1.90 g
- Variations in Body Weight ([2]; day 5): 169.54 ± 2.41 g
- Variations in Body Weight ([2]; day 10): 171.23 ± 2.07 g
- Variations in Body Weight ([2]; day 15): 179.50 ± 1.40 g
- TBARS [3]: 1.55 ± 0.8 nmol MDA/mg Protein
- SOD [4]: 5.91 ± 0.3 SOD/mg Protein
- CAT (catalase (CAT)): 6.45 ± 3.9 E/min/mg Protein
- GPx [5]: 7.80 ± 1.6 nmol NADPH/min/mg Protein
- GSH [6]: 89.52 ± 4.74 GSH/mg Protein
- AChE activity, Cerebellum [7]: 50 ± 1.20 µmol AcSCh/h/mg of protein
- AChE activity, Cerebral Cortex [7]: 55 ± 2.06 µmol AcSCh/h/mg of protein
- AChE activity, Hippocampus [7]: 43 ± 1.10 µmol AcSCh/h/mg of protein
- AChE activity, Hypothalamus [7]: 50 ± 2.15 µmol AcSCh/h/mg of protein
- AChE activity, Striatum [7]: 46 ± 1.59 µmol AcSCh/h/mg of protein
- AChE activity [8]: 45 ± 2.01 %

Structure (SMILES): Oc1ccc(CC2NCCc3cc(O)c(O)cc32)cc1 (stereo not shown) [norcoclaurine]
- Blood Glucose Level ([1]; day 0): 2.10 ± 4.67 mg/mL
- Blood Glucose Level ([1]; day 5): 1.70 ± 3.25 mg/mL
- Blood Glucose Level ([1]; day 10): 1.58 ± 1.43 mg/mL
- Blood Glucose Level ([1]; day 15): 1.08 ± 3.15 mg/mL
- Variations in Body Weight ([2]; day 0): 178.22 ± 7.61 g
- Variations in Body Weight ([2]; day 5): 159.85 ± 1.34 g
- Variations in Body Weight ([2]; day 10): 169.11 ± 3.01 g
- Variations in Body Weight ([2]; day 15, 10 mg/kg/day): 178.91 ± 1.32 g
- TBARS [3]: 1.98 ± 0.9 nmol MDA/mg Protein
- SOD [4]: 6.2 ± 0.7 SOD/mg Protein
- CAT (catalase (CAT)): 5.1 ± 0.3 E/min/mg Protein
- GPx [5]: 6.70 ± 0.89 nmol NADPH/min/mg Protein
- GSH [6]: 76.68 ± 0.4 GSH/mg Protein
- AChE activity, Cerebellum [7]: 57 ± 1.40 µmol AcSCh/h/mg of protein
- AChE activity, Cerebral Cortex [7]: 60 ± 0.80 µmol AcSCh/h/mg of protein
- AChE activity, Hippocampus [7]: 48 ± 0.20 µmol AcSCh/h/mg of protein
- AChE activity, Hypothalamus [7]: 60 ± 4.30 µmol AcSCh/h/mg of protein
- AChE activity, Striatum [7]: 56 ± 0.90 µmol AcSCh/h/mg of protein
- AChE activity [8]: 55 ± 1.23 %

Structure (SMILES): COc1cc2c3c(c1OC)-c1ccccc1C[C@H]3N(C)CC2 [nuciferine]
- Blood Glucose Level ([1]; day 0): 2.05 ± 3.85 mg/mL
- Blood Glucose Level ([1]; day 5): 1.64 ± 2.51 mg/mL
- Blood Glucose Level ([1]; day 10): 1.42 ± 1.23 mg/mL
- Blood Glucose Level ([1]; day 15, 10 mg/kg/day): 1.00 ± 1.45 mg/mL
- Variations in Body Weight ([2]; day 0): 177.43 ± 4.19 g
- Variations in Body Weight ([2]; day 5): 161.97 ± 2.21 g
- Variations in Body Weight ([2]; day 10): 173.22 ± 2.67 g
- Variations in Body Weight ([2]; day 15, 10 mg/kg/day): 182.33 ± 3.05 g and 177.33 ± 3.05 g
- TBARS [3]: 1.60 ± 0.8 nmol MDA/mg Protein
- SOD [4]: 7.1 ± 0.2 SOD/mg Protein
- CAT (catalase (CAT)): 6.16 ± 0.7 E/min/mg Protein
- GPx [5]: 7.98 ± 0.9 nmol NADPH/min/mg Protein
- GSH [6]: 86.96 ± 0.7 GSH/mg Protein
- AChE activity, Cerebellum [7]: 53 ± 1.70 µmol AcSCh/h/mg of protein
- AChE activity, Cerebral Cortex [7]: 56 ± 1.41 µmol AcSCh/h/mg of protein
- AChE activity, Hippocampus [7]: 41 ± 1.10 µmol AcSCh/h/mg of protein
- AChE activity, Hypothalamus [7]: 55 ± 3.20 µmol AcSCh/h/mg of protein
- AChE activity, Striatum [7]: 50 ± 1.90 µmol AcSCh/h/mg of protein
- AChE activity [8]: 42 ± 7.43 %
